Source: PubChem BioAssay (NCI)
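Values below derive from 48-hour exposures of cells grown in 96-well plates, with endpoints linearly interpolated between the two concentrations bracketing the appropriate inhibition level. Definition used: TGI = concentration required for complete inhibition of growth.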

What was measured:
Experiment in all cases: NCI tumour cell line growth inhibition, 48 h
[1] = system: NCI-H226 lung
[2] = system: KM12 colon
[3] = system: K-562 leukemia
[4] = system: MDA-MB-435
[5] = system: SF-539 CNS
[6] = system: UO-31 renal
[7] = system: 786-0 renal
[8] = system: HCT-116 colon
[9] = system: SK-MEL-5 melanoma
[10] = system: NCI/ADR-RES ovarian
[11] = system: OVCAR-8 ovarian
[12] = system: HCT-15 colon
[13] = system: HOP-92 NSCLC
[14] = system: MALME-3M melanoma

| SMILES | TGI [1] | TGI [2] | TGI [3] | TGI [4] | TGI [5] | TGI [6] | TGI [7] | TGI [8] | TGI [9] | TGI [10] | TGI [11] | TGI [12] | TGI [13] | TGI [14] |
| --- | --- | --- | --- | --- | --- | --- | --- | --- | --- | --- | --- | --- | --- | --- |
| NC(=Nc1ccc(O)cc1)S(=O)(=O)O | > 100 µM | > 100 µM | > 100 µM | > 100 µM | > 100 µM | > 100 µM | > 100 µM | > 100 µM | > 100 µM | > 100 µM | > 100 µM | > 100 µM | > 100 µM | > 100 µM |
| COC1=C(N=[N+]=[N-])C(=O)c2ncccc2C1=O | 35.9 µM | 29.5 µM | 15.2 µM | 4.41 µM | 30.5 µM | 27.6 µM | 16.3 µM | 6.57 µM | 23.4 µM | 25.6 µM | 7.56 µM | 20.4 µM | 2.56 µM | 5.03 µM |
| COc1cccc(-c2ccc3c4c2O[C@H]2c5[nH]c6ccccc6c5C[C@@]5(O)[C@@H](C3)N(CC3CC3)CC[C@]425)c1 | 30.2 µM | 3.26 µM | 4.98 µM | 3.18 µM | 3.51 µM | 3.1 µM | 3.09 µM | 2.99 µM | 3.85 µM | 5.21 µM | 3.11 µM | 3.7 µM | 3.04 µM | 2.88 µM |
| C=CC1ON(Cc2ccccc2)CCc2cc(OC)c(OC)cc21 (stereo unspecified) | > 100 µM | > 100 µM | > 100 µM | 84.9 µM | > 100 µM | > 100 µM | > 100 µM | > 100 µM | 31.6 µM | > 100 µM | > 100 µM | > 100 µM | > 100 µM | > 100 µM |
| [Se]=P(c1ccccc1)(c1ccccc1)c1ccc(C(c2ccccc2)=P(c2ccccc2)(c2ccccc2)c2ccccc2)cc1 | 11.5 µM | 1.8 µM | 3.33 µM | 3.46 µM | 17.8 µM | 20.1 µM | 10.8 µM | 4.7 µM | 1.64 µM | > 54.1 µM | 8.02 µM | 18.8 µM | 1.91 µM | 2.51 µM |
| O=C(Nc1c[nH]c(=O)[nH]c1=O)C(Cl)Cl | > 100 µM | > 100 µM | > 100 µM | > 100 µM | > 100 µM | > 100 µM | > 100 µM | > 100 µM | > 100 µM | > 100 µM | > 100 µM | > 100 µM | > 100 µM | > 100 µM |
| O=C(CN1CCN(Cc2ccccc2)CC1)N1CCCn2c1nc1ccccc1c2=O | > 100 µM | > 100 µM | > 100 µM | > 100 µM | > 100 µM | > 100 µM | > 100 µM | > 100 µM | > 100 µM | > 100 µM | > 100 µM | > 100 µM | 52.5 µM | > 100 µM |
| Clc1ccc(Cc2nc3ccc(CCN4CCN(c5ccccc5)CC4)cc3[nH]2)cc1 | 51.3 µM | 24.1 µM | 30.6 µM | 26.6 µM | 33.5 µM | 20.3 µM | 23.1 µM | 24.6 µM | 25.3 µM | 51.6 µM | 36.3 µM | 39.8 µM | 73.8 µM | 32.9 µM |
| Cc1ccc(OCC2OC(n3cnc4c(N(C)C)nc(Br)nc43)CC2Oc2ccc(C)cc2)cc1 (stereo unspecified) | > 100 µM | > 100 µM | > 100 µM | > 100 µM | > 100 µM | > 100 µM | > 100 µM | > 100 µM | > 100 µM | > 100 µM | > 100 µM | > 100 µM | > 100 µM | > 100 µM |
